This note sets out measurements from patent EP1077967B1, “BIPHENYL OXO-ACETIC ACIDS USEFUL IN THE TREATMENT OF INSULIN RESISTANCE AND HYPERGLYCEMIA” (Wyeth, priority 1998, dated 1999).

Experiment [1] has as its target rat hepatic microsomal PTPases. The experiment in a line: Inhibition of tri-phosphorylated insulin receptor dodecaphosphopeptide dephosphorylation by rat hepatic PTPases (malachite green). It is filed as biochemical. As to conditions: rat liver microsomal fraction; for IC50: % Change from Control; for % Change from Control: PTPase activity, compound at 50 µM. Background: Liver microsomes are vesicles of endoplasmic reticulum, rich in cytochrome P450 enzymes.

In a further experiment the target is T1, Human recombinant PTP1B (Homo sapiens, UniProt P18031).
T1 construct: made in house
T1 sequence (P18031 1-435): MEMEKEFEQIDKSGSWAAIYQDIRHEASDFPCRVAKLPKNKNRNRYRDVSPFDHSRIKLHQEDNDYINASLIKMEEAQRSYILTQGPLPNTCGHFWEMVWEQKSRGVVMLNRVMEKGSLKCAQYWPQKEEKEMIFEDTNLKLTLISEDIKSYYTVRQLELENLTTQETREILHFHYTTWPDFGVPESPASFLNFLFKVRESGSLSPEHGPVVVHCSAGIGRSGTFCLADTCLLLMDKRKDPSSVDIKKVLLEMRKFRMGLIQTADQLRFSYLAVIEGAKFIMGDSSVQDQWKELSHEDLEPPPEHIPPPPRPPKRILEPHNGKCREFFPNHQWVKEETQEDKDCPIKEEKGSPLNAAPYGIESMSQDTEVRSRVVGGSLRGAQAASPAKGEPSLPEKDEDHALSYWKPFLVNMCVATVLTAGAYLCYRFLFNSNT
The experiment in a line: Inhibition of tri-phosphorylated insulin receptor dodecaphosphopeptide dephosphorylation by hPTP1B (malachite green). The format is biochemical. As to conditions: for inhibition at 2.5 µM: read-out: change of PTP1B activity (percent of phosphatase control).

Where [2] appears, read: recombinant PTP1B, dodecaphosphopeptide substrate.

Counter-ions that a name gives are not always drawn. Like-named read-outs stand apart in the source and are kept apart here.

One may read the IC50 as the midpoint of a concentration-inhibition curve. As for `O=C(O)[C@@H](Cc1ccccc1)Oc1ccc(-c2ccc(-c3c(Cc4ccccc4)sc4ccccc34)cc2)cc1Br` [Example 36, (2R)-2-[4'-(2-Benzyl-benzo[b]thiophene-3-yl)-3-bromo-biphenyl-4-yloxy]-3-phenyl-propionic acid], the concentration for half-maximal inhibition (IC50) in experiment [1] is 17900 nM; on Human recombinant PTP1B (setting [2]), 58 nM.

Consider `CCCCc1sc2ccccc2c1-c1ccc(-c2ccc(OC(C(=O)O)c3ccccc3)cc2)cc1` (stereo not shown) [Example 21, [4'-(2-Butyl-benzo[b]thiophene-3-yl)-biphenyl-4-yloxy]-phenyl-acetic acid], for which the IC50 in experiment [1] is 35500 nM; at Human recombinant PTP1B (setting [2]), 118 nM.

In the case of `COc1ccc(Cc2sc3ccccc3c2-c2ccc(-c3ccc(O[C@H](Cc4ccccc4)C(=O)O)cc3)cc2)cc1` [Example 20], the midpoint of inhibition in experiment [1], the IC50, lay at 41600 nM.

As for `COc1ccc(Cc2sc3ccccc3c2-c2ccc(-c3ccc(O[C@H](Cc4ccccc4)C(=O)O)cc3)cc2)c(OC)c1` [Example 26, (2R)-2-{4'-[2-(2,4-Dimethoxy-benzyl)-benzo[b]thiophen-3-yl]-biphenyl-4-yloxy}-3-phenyl-propionic acid], the figures for the IC50 (in experiment [1]; on Human recombinant PTP1B (setting [2])) were 20000 nM and 85 nM, respectively.

On to `O=C(O)COc1ccc(-c2ccc(-c3coc4ccccc34)cc2)cc1` [Example 4, (4'-Benzofuran-3-yl-biphenyl-4-yloxy)-acetic acid], for which the “% Change from Control” value in experiment [1] is reported as -11%. Also, the “change of PTP1B activity (percent of phosphatase control)” value on Human recombinant PTP1B (compound at 2.5 uM) is given as -51 (2.5 uM).

In the case of `O=C(O)C(Cc1ccccc1)Oc1ccc(-c2ccc(-c3c(Br)oc4ccccc34)cc2)cc1` (stereo not shown) [Example 7, 2-[4'-(2-Bromo-benzofuran-3-yl)-biphenyl-4-yloxy]-3-phenyl-propionic acid], the “% Change from Control” value in experiment [1] is -73%. Also, at Human recombinant PTP1B (compound at 2.5 uM), the inhibition at 2.5 µM is 58%.

As for `O=C(O)[C@@H](Cc1ccccc1)Oc1ccc(-c2ccc(-c3ccsc3Cc3ccccc3)cc2)cc1` [Example 29, (2R)-2-[4'-(2-Benzyl-thiophene-3-yl)-biphenyl-4-yloxy]-3-phenyl-propionic acid], in experiment [1], the “% Change from Control” value is listed as -19%. At Human recombinant PTP1B (setting [2]), the concentration for half-maximal inhibition (IC50) is 970 nM.

Turning to `CCCCC(Oc1c(Br)cc(-c2ccc(-c3c(Cc4ccccc4)oc4ccccc34)cc2)cc1Br)C(=O)O` (stereo not shown) [Example 52, 2-[4'-(2-benzyl-benzofuran-3-yl)-3,5-dibromo-biphenyl-4-yloxy]-hexanoic acid], at Human recombinant PTP1B (setting [2]), the IC50 worked out at 52 nM.

As to `O=C(O)COc1ccc(-c2ccc(-c3c(Br)oc4ccccc34)cc2)cc1` [Example 6, [4'-(2-Bromo-benzofuran-3-yl)-biphenyl-4-yloxy]-acetic acid], the “% Change from Control” value in experiment [1] is recorded as -71%. The inhibition at 2.5 µM on Human recombinant PTP1B (compound at 2.5 uM) was 15%.

Take `COc1ccc(-c2cc(-c3ccc(-c4c(Cc5ccccc5)sc5ccccc45)cc3)ccc2OCC(=O)O)cc1OC` [Example 60]: at Human recombinant PTP1B (setting [2]), the concentration for half-maximal inhibition (IC50) turned out to be 71 nM.

With `COc1ccc(-c2cc(-c3ccc(-c4c(Cc5ccccc5)sc5ccccc45)cc3)cc(Br)c2OCC(=O)O)cc1OC` [Example 56, [4-(2-benzyl-benzo[b]-thiophen-3-yl)-5'-bromo-3",4"-dimethoxy[1,1';3',1"-terphenyl]-4'-yloxy]-acetic acid], the IC50 on Human recombinant PTP1B (setting [2]) was 47 nM.

Consider `COc1cc(-c2cc(-c3ccc(-c4c(Cc5ccccc5)sc5ccccc45)cc3)ccc2OCC(=O)O)cc(OC)c1OC` [Example 61], for which, on Human recombinant PTP1B (setting [2]), the IC50 came out at 100 nM.

In the case of `O=C(O)C(Cc1ccccc1)Oc1ccc(-c2ccc(-c3c(C(O)c4ccccc4)oc4ccccc34)cc2)cc1[N+](=O)[O-]` [Example 67, (2R)-2-{4'-[2-(Hydroxy-phenyl-methyl)-benzofuarn-3-yl)-3-nitro-biphenyl-4-yloxy]-3-phenyl-propionic acid], the concentration for half-maximal inhibition (IC50) on Human recombinant PTP1B (setting [2]) amounted to 103 nM.

Turning to `COC(=O)[C@@H](CCNC(=O)c1ccccc1C(=O)O)Oc1c(Br)cc(-c2ccc(-c3c(Cc4ccccc4)sc4ccccc34)cc2)cc1Br` [Example 44, N-{(3R)-3-[4'-(2-benzyl-benzo[b]thiophen-3-yl)-3,5-dibromo-biphenyl-4-yloxy]-3-methoxycarbonyl-propyl]-phthalamic acid], the half-inhibitory concentration (IC50) on Human recombinant PTP1B (setting [2]) worked out at 54 nM.

As to `O=C(O)[C@@H](Cc1ccccc1)Oc1ccc(-c2ccc(-c3c(Cc4ccccn4)sc4ccccc34)cc2)cc1` [Example 32, (2R)-3-phenyl-2-[4'-(2-pyridin-2-ylmethyl-benzo[b]thiophene-3-yl)-biphenyl-4-yloxy]-propionic acid sodium salt], the IC50 at Human recombinant PTP1B (setting [2]) is 1510 nM.

With `COC(=O)[C@H](Cc1ccccc1)Oc1ccc(-c2ccc(-c3c(Cc4ccccc4)oc4ccccc34)cc2)cc1` [Example 23, (2S)-2-[4'-(2-Benzyl-benzofuran-3-yl)-biphenyl-4-yloxy]-3-phenyl-propionic acid methyl ester], the inhibition at 2.5 µM on Human recombinant PTP1B (compound at 2.5 uM) was 36%.

Turning to `O=C(O)[C@@H](Cc1ccccc1)Oc1ccc(-c2ccc(-c3c(Cc4ccccc4)oc4ccccc34)cc2)cc1[N+](=O)[O-]` [Example 68, (2R)-2-[4'-(2-Benzyl-benzofuarn-3-yl)-3-nitro-biphenyl-4-yloxy]-3-phenyl-propionic acid], at Human recombinant PTP1B, the half-maximal inhibitory concentration (IC50) was determined as 231 nM.

As to `CC[C@H](Oc1c(Br)cc(-c2ccc(-c3c(Cc4ccccc4)oc4ccccc34)cc2)cc1Br)C(=O)O` [Example 53, (2S)-2-[4'-(2-benzyl-benzofuran-3-yl)-3,5-dibromo-biphenyl-4-yloxy]-butyric acid], the half-inhibitory concentration (IC50) at Human recombinant PTP1B (setting [2]) came out at 133 nM.

On to `O=C(O)[C@@H](Cc1ccccc1)Oc1ccc(-c2ccc(-c3c(Cc4ccccn4)sc4ccccc34)cc2)cc1` [Example 33, (2R)-3-phenyl-2-[4'-(2-pyridin-2-ylmethyl-benzo[b]thiophene-3-yl)-biphenyl-4-yloxy]-propionic acid], for which the IC50 at Human recombinant PTP1B (setting [2]) amounted to 1550 nM.

With `CC(C)C[C@@H](Oc1c(Br)cc(-c2ccc(-c3c(Cc4ccccc4)oc4ccccc34)cc2)cc1Br)C(=O)O` [Example 51, (2R)-2-[4'-(2-benzyl-benzofuran-3-yl)-3,5-dibromo-biphenyl-4-yloxy]-4-methyl-pentanoic acid], the 50% inhibitory concentration (IC50) on Human recombinant PTP1B (setting [2]) was found to be 54 nM.

In the case of `CCCCc1oc2ccccc2c1-c1ccc(-c2ccc(OCC(=O)O)cc2)cc1` [Example 9, [4'-(2-Butyl-benzofuran-3-yl)-biphenyl-4-yloxy]-acetic acid], the “% Change from Control” value in experiment [1] is reported as -75%. The concentration for half-maximal inhibition (IC50) at Human recombinant PTP1B (setting [2]) was 2190 nM.

With `Cc1cc(-c2ccc(-c3c(Cc4ccccc4)oc4ccccc34)cc2)cc(C)c1O[C@H](Cc1ccccc1)C(=O)O` [Example 65, (2R)-2-[4'-(2-Benzyl-benzofuarn-3-yl)-3,5-dimethyl-biphenyl-4-yloxy]-3-phenyl-propionic acid], the IC50 on Human recombinant PTP1B (setting [2]) is 74 nM.

Turning to `Oc1ccc(-c2ccc(-c3c(Cc4ccccc4)sc4ccccc34)cc2)cc1Br` [Example 34, 4'-(2-Benzyl-benzo[b]thiophen-3-yl)-3-bromo-biphenyl-4-ol], on Human recombinant PTP1B (setting [2]), the half-maximal inhibitory concentration (IC50) came out at 1070 nM.

Turning to `O=C(O)C(Cc1ccccc1)Oc1ccc(-c2ccc(-c3c(Cc4ccccc4)sc4ccccc34)cc2)cc1-c1ccc(Cl)cc1` (stereo not shown) [Example 46, (2R')-2-[4-(2-benzyl-benzo[b]thiophene-3-yl)-4"-chloro-[1,1':3',1"]terphenyl-4'-yloxy]-3-phenyl-propionic acid], the IC50 at Human recombinant PTP1B (setting [2]) stood at 52 nM.

For the molecule `O=C(O)C(Cc1ccccc1)Oc1ccc(-c2ccc(-c3c(Cc4nccs4)sc4ccccc34)cc2)cc1` (stereo not shown) [Example 30, 3-Phenyl-2-[4'-(2-thiazole-2-ylmethyl-benzo[b]thiophene-3-yl)-biphenyl-4-yloxy]-propionic acid], the half-inhibitory concentration (IC50) on Human recombinant PTP1B (setting [2]) turned out to be 1160 nM.

“Ammonium molybdate tetrahydrate [reference compound]”: the IC50 on Human recombinant PTP1B (setting [2]) was 8700 nM.

`O=C(O)[C@H](Cc1ccccc1)Oc1c(Br)cc(-c2ccc(-c3c(Cc4ccccc4)oc4ccccc34)cc2)cc1Br` [Example 49, (2S)-2-[4'-(2-benzyl-benzofuran-3-yl)-3,5-dibromo-biphenyl-4-yloxy]-3-phenyl-propionic acid]: the concentration for half-maximal inhibition (IC50) at Human recombinant PTP1B (setting [2]) was 38 nM.

As for `O=C(O)c1ccccc1C(=O)NCC[C@@H](Oc1c(Br)cc(-c2ccc(-c3c(Cc4ccccc4)sc4ccccc34)cc2)cc1Br)C(=O)O` [Example 45, N-{(3R)-3-[4'-(2-benzyl-benzo[b]thiophen-3-yl)-3,5-dibromo-biphenyl-4-yloxy]-3-carboxy-propyl]-phthalamic acid], the IC50 on Human recombinant PTP1B (setting [2]) was found to be 181 nM.

In the case of `COc1cccc(-c2cc(-c3ccc(-c4c(Cc5ccccc5)sc5ccccc45)cc3)cc(-c3cccc(OC)c3)c2OCC(=O)O)c1` [Example 58], the IC50 on Human recombinant PTP1B (setting [2]) came out at 25 nM.

For `CC(=O)c1ccc(-c2ccc(-c3ccc(O[C@@H](Cc4ccccc4)C(=O)O)cc3)cc2)s1` [Example 71, (2S)-2-[4'-(5-acetyl-thiophen-2-yl)-biphenyl-4-yloxy]-3-phenyl-propionic acid sodium salt], at Human recombinant PTP1B (compound at 2.5 uM), the inhibition at 2.5 µM was determined as 43%.

Take `Oc1c(Br)cc(-c2ccc(-c3c(Cc4ccccc4)sc4ccccc34)cc2)cc1Br` [Example 35, 4'-(2-Benzyl-benzo[b]thiophen-3-yl)-3,5-dibromo-biphenyl-4-ol]: the IC50 at Human recombinant PTP1B (setting [2]) is 454 nM.

In the case of `O=C(O)[C@@H](CCN1C(=O)c2ccccc2C1=O)Oc1c(Br)cc(-c2ccc(-c3c(Cc4ccccc4)sc4ccccc34)cc2)cc1Br` [Example 43, (2R)-2-[4'-(2-Benzyl-benzo[b]-thiophen-3-yl)-3,5-dibromo-biphenyl-4-yloxy]-4-(1,3-dioxo-1,3-dihydro-isoindol-2-yl)-butyric acid], the half-maximal inhibitory concentration (IC50) on Human recombinant PTP1B (setting [2]) came out at 44 nM.
